Experimental data published in patent US20130040983A1, “RAF KINASE INHIBITORS” (priority 2010, published 2013).
Read-outs that look alike come from different tables or passages of the source.

How the values were obtained:
[1] = biological target: V600E mutated B-RAF (Homo sapiens, UniProt P15056, V600E); assay: In vitro assay for inhibition of mutant B-RAF kinase (recombinant V600E B-RAF, MEK (K97R) substrate); assay type: biochemical; details: 10 nM recombinant V600E B-RAF, 1 μM MEK (K97R) substrate
Protocol: (§1) The ability of compounds described herein to inhibit RAF kinase activity was determined from biochemical kinase assays using recombinant RAF proteins as known in the art.
(§2) Solutions of varying concentrations of test compounds or vehicle were added to 10 nM recombinant wild-type B-RAF or V600E mutated B-RAF proteins incubated in the presence of different concentrations of ATP and 1 μM MEK (K97R) as substrate, as previously described (Wilhelm, S. M., et al., Cancer Res., 64: 7099-7109, 2004; Mason, C. S., et al., EMBO J. 18: 2137-2148, 1999; Marais, R., et al., J. Biol. Chem., 272: 4378-4383, 1997). At least triplicate determinations for each individual test compound concentration were made and data plotted as mean±standard deviation relative to the control vehicle.

[2] = biological target: wild-type B-RAF (Homo sapiens, UniProt P15056); assay: In vitro assay for inhibition of B-RAF kinase (recombinant wild-type B-RAF, MEK (K97R) substrate); assay type: biochemical; details: 10 nM recombinant wild-type B-RAF, 1 μM MEK (K97R) substrate; read-out: BRAF IC50
Protocol: as §1
as §2, with “A-RAF, wild-type B-RAF,” for “B-RAF”, “wild-type C-RAF” for “V600E mutated B-RAF”
as §2

[3] = class symbols, read-out: IC50 (μM) V600E B-Raf

Sequence of V600E mutated B-RAF (P15056 whole entry V600E): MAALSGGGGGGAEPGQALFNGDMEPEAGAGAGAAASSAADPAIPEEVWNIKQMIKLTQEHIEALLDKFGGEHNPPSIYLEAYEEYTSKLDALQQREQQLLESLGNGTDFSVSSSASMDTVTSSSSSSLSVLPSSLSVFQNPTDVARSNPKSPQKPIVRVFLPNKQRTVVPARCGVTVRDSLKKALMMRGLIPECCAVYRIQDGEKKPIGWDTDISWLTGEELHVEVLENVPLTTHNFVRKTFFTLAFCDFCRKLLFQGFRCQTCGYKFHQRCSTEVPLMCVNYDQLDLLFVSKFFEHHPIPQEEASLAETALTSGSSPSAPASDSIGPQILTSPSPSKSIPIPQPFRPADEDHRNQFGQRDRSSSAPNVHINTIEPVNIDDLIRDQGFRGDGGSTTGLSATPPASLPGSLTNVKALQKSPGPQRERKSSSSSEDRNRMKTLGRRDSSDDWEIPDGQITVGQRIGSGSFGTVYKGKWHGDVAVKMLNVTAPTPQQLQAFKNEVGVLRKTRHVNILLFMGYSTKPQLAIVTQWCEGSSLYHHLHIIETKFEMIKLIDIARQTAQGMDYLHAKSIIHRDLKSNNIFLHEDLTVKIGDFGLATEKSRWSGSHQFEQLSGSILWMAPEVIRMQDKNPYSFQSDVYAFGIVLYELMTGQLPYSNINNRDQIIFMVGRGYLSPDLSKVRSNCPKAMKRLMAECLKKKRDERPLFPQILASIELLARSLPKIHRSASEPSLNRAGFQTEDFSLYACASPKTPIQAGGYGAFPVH
Sequence of wild-type B-RAF (P15056 whole entry): as the sequence (P15056 whole entry V600E) above, with E600V counted along it

Row | SMILES | IC50 [1, 3] | IC50 ([1]; read-out: BRAF-V600E IC50) | IC50 [2]
1 | O=C(O)c1cccc(-c2[nH]c(-c3ccccc3)nc2-c2ccncc2)c1 [Example 1, 3-(2-phenyl-4-(pyridin-4-yl)-1H-imidazol-5-yl)benzoic acid] | 0.1 to 1 µM | 0.13 µM | 3100 nM
2 | CS(=O)(=O)Nc1cccc(-c2[nH]c(-c3ccccc3)nc2-c2ccncc2)c1 [Example 2, N-(3-(2-phenyl-4-(pyridin-4-yl)-1H-imidazol-5-yl)phenyl)methanesulfonamide] | – | – | 800 nM
3 | O=C(O)c1cccc(-c2cn(-c3ccccc3)nc2-c2ccncc2)c1 [Example 3, 3-(1-phenyl-3-(pyridin-4-yl)-1H-pyrazol-4-yl)benzoic acid] | 0.1 to 1 µM | – | –
4 | CCS(=O)(=O)Nc1cccc(-c2[nH]c(-c3ccccc3)nc2-c2ccncc2)c1 [Example 4, N-(3-(2-phenyl-4-(pyridin-4-yl)-1H-imidazol-5-yl)phenyl)ethanesulfonamide] | 1 to 10 µM | – | –
5 | CCCS(=O)(=O)Nc1cccc(-c2[nH]c(-c3ccccc3)nc2-c2ccncc2)c1 [Example 5, N-(3-(2-phenyl-4-(pyridin-4-yl)-1H-imidazol-5-yl)phenyl)propane-1-sulfonamide] | 1 to 10 µM | – | –
6 | O=C(O)c1cc(F)cc(-c2[nH]c(-c3ccccc3)nc2-c2ccncc2)c1 [Example 6, 3-fluoro-5-(2-phenyl-4-(pyridin-4-yl)-1H-imidazol-5-yl)benzoic acid] | 0.1 to 1 µM | – | –
7 | O=C(O)c1cc(-c2[nH]c(-c3ccccc3)nc2-c2ccncc2)ccc1F [Example 7, 2-fluoro-5-(2-phenyl-4-(pyridin-4-yl)-1H-imidazol-5-yl)benzoic acid] | 0.1 to 1 µM | – | –
8 | O=C(O)c1cccc(-c2[nH]c(-c3ccccc3)nc2-c2ccncc2)c1F [Example 8, 2-fluoro-3-(2-phenyl-4-(pyridin-4-yl)-1H-imidazol-5-yl)benzoic acid] | 0.1 to 1 µM | – | –
9 | O=C(O)c1ccc(F)c(-c2[nH]c(-c3ccccc3)nc2-c2ccncc2)c1 [Example 9, 4-fluoro-3-(2-phenyl-4-(pyridin-4-yl)-1H-imidazol-5-yl)benzoic acid] | 1 to 10 µM | – | –
10 | O=C(O)c1cc(-c2[nH]c(-c3ccccc3)nc2-c2ccncc2)ccc1Cl [Example 10, 2-chloro-5-(2-phenyl-4-(pyridin-4-yl)-1H-imidazol-5-yl)benzoic acid] | < 0.1 µM | – | –
11 | CS(=O)(=O)Nc1cc(-c2[nH]c(-c3ccccc3)nc2-c2ccncc2)ccc1Cl [Example 12, N-(2-chloro-5-(2-phenyl-4-(pyridin-4-yl)-1H-imidazol-5-yl)phenyl)methanesulfonamide] | 0.1 to 1 µM | – | –
12 | O=C(O)c1cccc(-c2nn(-c3ccccc3)cc2-c2ccncc2)c1 [Example 13, 3-(1-phenyl-4-(pyridin-4-yl)-1H-pyrazol-3-yl)benzoic acid] | 0.1 to 1 µM | – | –
13 | O=C(O)c1cc(Cl)cc(-c2[nH]c(-c3ccccc3)nc2-c2ccncc2)c1 [Example 14, 3-chloro-5-(2-phenyl-4-(pyridin-4-yl)-1H-imidazol-5-yl)benzoic acid] | 0.1 to 1 µM | – | –
14 | O=C(O)c1cc(-c2cn(-c3ccccc3)nc2-c2ccncc2)ccc1Cl [Example 15, 2-chloro-5-(1-phenyl-3-(pyridin-4-yl)-1H-pyrazol-4-yl)benzoic acid] | < 0.1 µM | – | –
15 | NC(=O)c1cccc(-c2[nH]c(-c3ccccc3)nc2-c2ccncc2)c1 [Example 21, 3-(2-phenyl-4-(pyridin-4-yl)-1H-imidazol-5-yl)benzamide] | 1 to 10 µM | – | –
16 | Cc1ccc(-c2[nH]c(-c3ccccc3)nc2-c2ccncc2)cc1C(=O)O [Example 27, 2-methyl-5-(2-phenyl-4-(pyridin-4-yl)-1H-imidazol-5-yl)benzoic acid] | 0.1 to 1 µM | – | –
